Test results as given in patent US4254111A, “Sterolin products” (Roecar Holdings (Netherlands Antilles) NV, priority 1978, dated 1981).
In brackets after ≈: the same amount, converted by molar mass.

Legend:
[1] = test system: rat paw-oedema / inflammation (Brewer's Yeast); assay: Anti-inflammatory effect, Brewer's Yeast rat paw oedema, intraperitoneal administration; assay type: in vivo, male Sprague-Dawley rats
Method: (§1) Ten animals were killed 5 hours after the challenge in order to determine the effect of the test substance on the accute inflammatory process. The remaining members of the group were sacrificed after 24 hours and used to assess the effect of the test compound on the secondary, residual inflammatory action of yeast. The average amount of oedema and swelling produced in the right foot by yeast was obtained by subtracting the weight of the foot from the weight obtained of the control (saline) side.
Groups of 20 male Sprague-Dawley rats, weighing 250 (±10 g) were acclimatized to the test environment. The test compound was made up in physiological saline at concentrations allowing the selected dose to be administered intraperitoneally at the rate of 0.1 ml/100 g body weight.
The test agent was administered 1.0 hour before the challenge with Brewer's Yeast. Otherwise the test procedure described under (a) was followed.

[2] = Acute toxicity after a single oral or parenteral dose; assay type: in vivo, male Sprague-Dawley rats; details: intraperitoneal, after 7 days
Method: (§2) The test substance was suspended in a 1% m/v Tylose® solution made up with distilled water. The selected test doses of the compounds were administered by force feeding at the rate of 1.0 ml/100 g body weight 24.0 hrs and 1.0 hour before the intra-plantar administration of the phlogegenic agent. Brewer's Yeast served as the inflammation-inducing substance and was injected at the rate of 0.1 ml of a 2% suspension made up in sterile saline into the right hind paw. (The left hind paw was injected with 0.1 ml saline only and served as the control foot.)
Male rats of Sprague-Dawley strain and with a weight of 250-350 g were injected intraperitoneally with 0.1-0.5 ml/100 g body weight of an aqueous solution or suspension. Oral administration was carried out as described under (a). Examination of the acute toxicity was carried out after 7 days.

Water solubility = assay type: physicochemical; details: for solubility / Solubility in g per l water at 25° C, white gel / thick syrup: water
Method: It is primarily for the purpose of providing water solubility to the steryl monosaccharides that the compounds of this invention, the dicarboxylic acid half ester derivatives and their salts, were prepared.
A solution of succinic anhydride (8.6 g, 0.086 mole) and anhydrous sitosteryl β-D-glucoside (24.7 g, 0.043 mole) in anhydrous pyridine (90 ml) was refluxed for 30 minutes and then left to stand for 20 hrs before it was poured into vigorously stirred conc. hydrochloric acid (104 ml) at ice temperature. The mixture was allowed to stand for 2 hrs before the precipitated hemiester was gravity filtered. The collected solid, washed with iced water until the washings were neutral, was dried in a vacuum oven and a small sample of this was dried to constant weight for a C and H analysis.
The standard preparation of the sterolin dicarboxylic acid hemiester salts illustrated by the preparation of the disodium salt of sitosteryl β-D-glucoside dihemisuccinate. The wet sitosteryl β-D-glucoside dihemisuccinate washed clear of hydrochloric acid as described in Example 1 was transferred quantitatively into a sodium bicarbonate solution (200 ml water; 7.2 g or 0.086 mole NaHCO3). This mixture cooled to 0° C. was slowly poured with vigorous stirring into ice cold acetone (2000 ml) and the white precipitate of the salt was allowed to settle over 18 hrs in an ice chest before it was filtered under suction. The moist salt was thoroughly stirred into ice cold acetone (200 ml), the slurry suction filtered and the filter cake washed with cold ether before the product was dried in a vacuum oven at 40° C. for 48 hrs followed by 2×1 minute heating in a microoven.

[3] = test system: rat paw-oedema / inflammation (Brewer's Yeast); assay: Anti-inflammatory effect, Brewer's Yeast rat paw oedema, oral administration; assay type: in vivo, male Sprague-Dawley rats
Method: Twenty male Sprague-Dawley rats, (original supplier: Blue Spruce; Altamont U.S.A.) weighing 240-260 g, were acclimatized for at least 10 days to the test environment.
as §2
as §1, with “side. The results obtained from the treated groups were compared to the relevant control groups which received a similar volume of the aqueous Tylose®-solution only and the difference was expressed as a percentage increase or decrease over the control value.” for “side.”

[4] = in vivo, ip
[5] = Oral toxicity studies in rats (acute and prolonged daily dosing); assay type: in vivo
Method: (§3) Preferred daily doses of the compounds of this invention depend on the purpose for which they are used, administered or applied and also whether they are given by oral or parenteral routes or applied topically. […] They may be toxic when administered in large amounts and therefore the oral route is preferred. […] If taken for prophylactic purposes by healthy individuals a daily dose of 0.01-0.1 mg is adequate, although this may be raised to 0.2-1 mg for elderly people. Depending on the severity of a degenerative disease daily doses of 0.3-44 mg may be used for initial treatment until on improvement of the particular condition, a maintenance dose of 0.03-0.6 mg per day is advisable. Lower daily doses are required when these compounds are administered parenterally (e.g. via an intravenous drip). It should be noted that with respect to animals a preferred dose is difficult to predict since it is known that marked differences exist between species and even various breeds or strains of animals in their ability to utilise or react to steroidal glycosides (44-46).

[6] = Oral toxicity studies in primates (acute and prolonged daily dosing); assay type: in vivo
Method: as §3

CCC(CCC(C)C1CCC2C3CC=C4CC(OC5OC(COC(=O)CCC(=O)O)C(OC(=O)CCC(=O)O)C(OC(=O)CCC(=O)O)C5OC(=O)CCC(=O)O)CCC4(C)C3CCC12C)C(C)C (stereo not drawn) [S.G. tetrahemisuccinate]
Reduction of the inflammatory response in the rat-paw oedema trials in % ([1]; (50) mg/kg body weight, TABLE 2, time not given): -46.3%
Acute toxicity after a single dose (% at dose) ([2]; 100 mg/kg): 20%
Acute toxicity after a single dose (% at dose) ([2]; 200 mg/kg): 100%

CC[C@H](CC[C@@H](C)[C@H]1CC[C@H]2[C@@H]3CC=C4C[C@@H](O[C@@H]5O[C@H](CO)[C@@H](O)[C@H](O)[C@H]5O)CC[C@]4(C)[C@H]3CC[C@]12C)C(C)C [S.G., sitosteryl β-D-glucoside, reference compound]
solubility (Water solubility): 0.009 mg/mL (≈ 15.6 µM)

CC[C@H](CC[C@@H](C)[C@H]1CC[C@H]2[C@@H]3CC=C4C[C@@H](O[C@@H]5O[C@H](CO)[C@@H](O[C@H]6O[C@H](CO)[C@@H](O)[C@H](O)[C@H]6O)[C@H](O)[C@H]5O)CC[C@]4(C)[C@H]3CC[C@]12C)C(C)C [S.M., sitosteryl β-D-maltoside, reference compound]
solubility (Water solubility): 0.38 mg/mL (≈ 514 µM)

disodium salt of sitosteryl β-D-glucoside dihemisuccinate [S.G. dihemisuccinate Na2 salt]
Average percentage reduction of rat paw-oedema / inflammation ([3]; 500 mg/kg given 24,0 and 1,0 hour before challenge, after 5 hours): 8,5%
Average percentage reduction of rat paw-oedema / inflammation ([3]; 500 mg/kg given 24,0 and 1,0 hour before challenge, after 24 hours): 10,7%
Average percentage reduction of rat paw-oedema / inflammation ([3]; 1000 mg/kg given 24,0 and 1,0 hour before challenge, after 5 hours): 14,5%
Average percentage reduction of rat paw-oedema / inflammation ([3]; 1000 mg/kg given 24,0 and 1,0 hour before challenge, after 24 hours): 18,5%
Average percentage reduction of rat paw-oedema / inflammation ([1]; single dose 25 mg/kg 1 hour before challenge, after 5 hours): 27%
Average percentage reduction of rat paw-oedema / inflammation ([1]; single dose 25 mg/kg 1 hour before challenge, after 24 hours): 14%
Average percentage reduction of rat paw-oedema / inflammation ([1]; single dose 50 mg/kg 1 hour before challenge, after 5 hours): 47%
Average percentage reduction of rat paw-oedema / inflammation ([1]; single dose 50 mg/kg 1 hour before challenge, after 24 hours): 35%
Solubility in g per l water at 25° C, white gel / thick syrup (Water solubility): 5×10^2 g per l
solubility (Water solubility): 2000 mg/mL
Adverse effects and tissue toxicity [4]: fewer adverse effects coupled with a lower tissue toxicity

sitosteryl β-D-glucoside dihemisuccinate [S.G. dihemisuccinate]
Acute toxicity after a single dose (% at dose) ([2]; 100 mg/kg): 25%
Solubility (state or result in words) (Water solubility): colloidal
Solubility in g per l water at 25° C, white gel / thick syrup (Water solubility): 5×10^2 g per l
solubility (Water solubility): 1,25×10^3 g/l
Tolerance of prolonged daily doses ([5]; rat, in vivo): well tolerated
Acute toxicity studies, toxic effects ([5]; rats, oral, even in excess of 1000-2000 mg/kg): no toxic effects
Tolerance of prolonged daily doses ([6]; in vivo): well tolerated
Acute toxicity studies, toxic effects ([6]; primates, oral, even in excess of 1000-2000 mg/kg): no toxic effects
